Data on 1 molecule can be found in PMC4632086, “Effects and possible mechanisms of action of acacetin on the behavior and eye morphology of Drosophila models of Alzheimer’s disease” (Scientific Reports, 2015).

What all share (format): in vivo, Drosophila melanogaster
Series [1] deals with elav < APP/BACE-1 flies. The series can be described thus: Lifespan assay. Particulars: males. As for the experimental part: Groups of 20 newly emerged male elav < APP/BACE-1 flies, cultured in vials as stated previously, were separately transferred to vials containing media supplemented with acacetin (100, 300, and 500 μM) every 4 days. The controls received 0.1% DMSO. The median life time (T1/2) was defined as the time when the survivor function equaled 50%, because median survivorship is a more reliable index than mean survival time, as described by Chakraborty and colleagues. All treatments were repeated 10 times using 20 males per replicate.

Series [2] relates to GMR < APP/BACE-1 flies. Put plainly: Light and scanning electron microscopy of adult compound eyes. The protocol:
GMR < APP/BACE-1 flies were cultured from the egg stage in polystyrene vials containing standard media supplemented with acacetin (100, 300, and 500 μM) in 0.1% DMSO, based on the preliminary test results. The controls received 0.1% DMSO only. […] The morphology of the compound eyes was observed using an EZ4 HD stereo microscope (×35) equipped with an Integrated 3.0 Mega-Pixel CMOS camera (Leica, Hicksville, NY, USA). The flies with aberrant eye phenotypes were collected, and the number of the flies with dark deposits in the eye was counted.
For SEM, the anesthetized male flies (30 days old) were attached to a copper mount using silver paint as a conducting adhesive, as described previously. They were then put directly into the viewing chamber of an SEM without prior coating, as described by Hartman and Hayes[76]. The external surface morphology of the compound eye was visualized using a Supra 55VP field-emission scanning electron microscope (Carl Zeiss, Jena, Germany) operated at 15 kV.

Series [3] relates to elav < APP/BACE-1 flies. The series can be described thus: Climbing assay (negative geotaxis). Particulars: 100, 300, and 500 μM, males. The protocol:
The climbing activity assay was performed, as described by Wang et al.[33] and Crowther et al.[34]. Groups of 20 male elav < APP/BACE-1 flies (1, 5, 10, and 15 days old), cultured in vials as stated previously, were separately placed in an empty vial conjoined with another vial on top, and manually tapped twice. After 20 s, the flies that climbed from the bottom and crossed the 9.5 cm line were counted, and the climbing index was determined as the number of flies that climbed to the top vial relative to the total number of test flies and expressed as a percentage. The controls received 0.1% DMSO. All trials were repeated five times using 20 males per replicate.

Series [4] deals with elav < APP/BACE-1 flies. The series can be described thus: Fly eclosion rate (pupation and emergence). To be noted: 100, 300, and 500 μM. As for the experimental part:
The pupation and emergence rates were determined according to the method of Tamura et al.[78]. The elav < APP/BACE-1 flies were cultured from the egg stage in vials, as stated previously. Groups of 50 third instar larvae climbing on the wall were transferred into vials containing fresh media. The treated and control (0.1% DMSO only) flies were grown under the same conditions as those used for fly maintenance. The numbers of pupae and adults were determined. All treatments were repeated four times using 50 larvae per replicate.

Series [5] concerns human BACE-1. Put plainly: Western blot, BACE-1 protein in heads of elav < APP/BACE-1 flies. To be noted: 20-day-old males. The protocol: The elav < APP/BACE-1 flies were cultured from the egg stage, as described previously. The lysates were obtained from the heads of 50 male flies (20 days old) by placing the heads in 100 μL RIPA buffer (pH 8.0) containing a 1% protease inhibitor cocktail. The controls received 0.1% DMSO. The lysates were centrifuged at 14,000 rpm for 30 min at 4 °C. The protein content of the supernatant was determined using a Bradford Protein Assay kit (Sigma-Aldrich) and BSA was used as the standard. The total proteins (30 μg/sample for APP and BACE-1 detection; 70 μg/sample for Aβ detection) were mixed with an equal volume of 5× sample buffer[81] containing 40 mM of DL-dithiothreitol, boiled for 10 min, and then loaded onto 8, 10, and 12% sodium dodecyl sulfate-polyacrylamide gels using a Mini-Protean 3 electrophoresis cell (Bio-Rad, Hercules, CA, USA) for APP, APP-CTF (APP-αCTF and APP-βCTF) and AICD, BACE-1, and Aβ detection, respectively. After electrophoresis at 110 V in 2 h, the proteins from the gels were transferred onto a polyvinyl difluoride membrane (Pall Corporation, Pensacola, FL, USA) using an electroblotting apparatus. The membrane was then blocked with 5% skim milk (BD Difco, Flanklin Lakes, NJ, USA) in PBS containing 0.1% (v/v) Tween-20 (0.1% PBS-T) at room temperature for 1 h, and further incubated overnight at 4 °C with a 1:4,000 dilution of an anti-APP C-terminal antibody to detect the cleaved APP product, a 1:1,000 dilution of anti-BACE-1, and a 1:1,000 dilution of anti-amyloid (4G8). After washing with 0.1% PBS-T three times at 10 min intervals, the membranes were further incubated for 2 h with a goat anti-rabbit IgG H&L (HRP) secondary antibody at a1:4,000 dilution for APP and BACE-1 and a goat anti-mouse lgG-HRP at a 1:5,000 dilution for β-amyloid. […] The differences in protein expression were quantified using a Molecular Imager Gel Doc XR system (Bio-Rad, Hercules, CA, USA) and normalized to actin expression on the same membrane. The results are expressed as the means ± SEs of duplicate samples from three independent experiments.
(In western blotting, separated proteins are transferred to a membrane and probed.)

Turning to `COc1ccc(-c2cc(=O)c3c(O)cc(O)cc3o2)cc1` [acacetin], the “median life time (T1/2)” value in series [1] (100 μM, vehicle 26 days, elav-Gal4/+ 36 days) is reported as 31 days; in series [1] (300 and 500 μM), “did not significantly extend the T1/2”. In series [1] (100, 300, and 500 μM, vs vehicle-fed transgenic flies), the lifespan result was “did not significantly increase the lifespan”. The “ratio of female flies with dark deposits in the eyes” value in series [2] (100, 300, and 500 μM in media, 1-day-old females, vehicle DMSO […]) is given as 6.3–8.0%. For the same molecule, the “ratio of male flies with dark deposits in the eyes” value in series [2] (100, 300, and 500 μM in media, 1-day-old males, vehicle DMSO 18.7%) is on record as 5.0–7.0%. For the same molecule, in series [2] (100, 300, and 500 μM, light microscopy, vs vehicle-fed flies), the “ommatidial fusion in the central side of the eyes” value is on record as “significantly suppressed ommatidial fusion”. Moreover, the “ommatidial fusion at the edges of the eyes” value in series [2] (300 and 500 μM, light microscopy) is reported as “ameliorated ommatidial fusion”. For the same molecule, the climbing index result in series [3] (1 day postemergence, vehicle 47%) is “approximately 68%”; in series [3] (5 days postemergence, vehicle 39%), 60–66%; in series [3] (10 days postemergence, vehicle 36%), 53–54%; in series [3] (15 days postemergence, vehicle 11%), 27–30%. Moreover, the pupation rate entry in series [4] is “nearly normal pupation rates”. In addition, in series [4] (vehicle 76%, elav-Gal4/+ 99%, not significant vs vehicle), the emergence of flies is 82–86%. Also, the “BACE-1 protein levels, % of the control levels” value in series [5] (100 μM) is reported as 81%; in series [5] (300 μM), 75%; in series [5] (500 μM) it was 74%.
